One compound from patent US20250162979A1, “P-DIPHENYL COMPOUND DERIVATIVE MIXTURE AND METHOD OF PRODUCING THE SAME” (HODOGAYA CHEMICAL CO., LTD., priority 2021, published 2025) can be followed below.

This series can be described thus: Solubility in organic solvent, checked visually at room temperature. It is filed as physicochemical. The note with it: room temperature (25±5° C.), stirred 3 to 5 minutes, visual check, % (w/w).

On to `Cc1ccc(N(c2ccccc2)c2ccc(-c3ccc(N(c4ccccc4)c4ccc(C)cc4)cc3)cc2)cc1` [A-1, 4,4′-bis(4-methyldiphenylamino)-p-diphenyl], for which the “Solubility in THF” value (10 g tetrahydrofuran) stood at 49.9%. For the same compound, the Solubility in toluene (10 g toluene) came to 24.2%.
